Data published in ChEMBL document CHEMBL1147277, “Pentagalloylglucose, a xanthine oxidase inhibitor from a Paraguayan crude drug, "Molle-i" (Schinus terebinthifolius)” (J Nat Prod, 1989).

Tests used:
[1] = biological target: T1, Xanthine dehydrogenase/oxidase (Bos taurus, UniProt P80457); assay: Inhibition of cow milk xanthine oxidase by Lineweaver-Burke plot analysis; settings: read-out: Activity
[2] = biological target: T1, Xanthine dehydrogenase/oxidase; assay: Inhibition of cow milk xanthine oxidase

T1 sequence (P80457 whole entry): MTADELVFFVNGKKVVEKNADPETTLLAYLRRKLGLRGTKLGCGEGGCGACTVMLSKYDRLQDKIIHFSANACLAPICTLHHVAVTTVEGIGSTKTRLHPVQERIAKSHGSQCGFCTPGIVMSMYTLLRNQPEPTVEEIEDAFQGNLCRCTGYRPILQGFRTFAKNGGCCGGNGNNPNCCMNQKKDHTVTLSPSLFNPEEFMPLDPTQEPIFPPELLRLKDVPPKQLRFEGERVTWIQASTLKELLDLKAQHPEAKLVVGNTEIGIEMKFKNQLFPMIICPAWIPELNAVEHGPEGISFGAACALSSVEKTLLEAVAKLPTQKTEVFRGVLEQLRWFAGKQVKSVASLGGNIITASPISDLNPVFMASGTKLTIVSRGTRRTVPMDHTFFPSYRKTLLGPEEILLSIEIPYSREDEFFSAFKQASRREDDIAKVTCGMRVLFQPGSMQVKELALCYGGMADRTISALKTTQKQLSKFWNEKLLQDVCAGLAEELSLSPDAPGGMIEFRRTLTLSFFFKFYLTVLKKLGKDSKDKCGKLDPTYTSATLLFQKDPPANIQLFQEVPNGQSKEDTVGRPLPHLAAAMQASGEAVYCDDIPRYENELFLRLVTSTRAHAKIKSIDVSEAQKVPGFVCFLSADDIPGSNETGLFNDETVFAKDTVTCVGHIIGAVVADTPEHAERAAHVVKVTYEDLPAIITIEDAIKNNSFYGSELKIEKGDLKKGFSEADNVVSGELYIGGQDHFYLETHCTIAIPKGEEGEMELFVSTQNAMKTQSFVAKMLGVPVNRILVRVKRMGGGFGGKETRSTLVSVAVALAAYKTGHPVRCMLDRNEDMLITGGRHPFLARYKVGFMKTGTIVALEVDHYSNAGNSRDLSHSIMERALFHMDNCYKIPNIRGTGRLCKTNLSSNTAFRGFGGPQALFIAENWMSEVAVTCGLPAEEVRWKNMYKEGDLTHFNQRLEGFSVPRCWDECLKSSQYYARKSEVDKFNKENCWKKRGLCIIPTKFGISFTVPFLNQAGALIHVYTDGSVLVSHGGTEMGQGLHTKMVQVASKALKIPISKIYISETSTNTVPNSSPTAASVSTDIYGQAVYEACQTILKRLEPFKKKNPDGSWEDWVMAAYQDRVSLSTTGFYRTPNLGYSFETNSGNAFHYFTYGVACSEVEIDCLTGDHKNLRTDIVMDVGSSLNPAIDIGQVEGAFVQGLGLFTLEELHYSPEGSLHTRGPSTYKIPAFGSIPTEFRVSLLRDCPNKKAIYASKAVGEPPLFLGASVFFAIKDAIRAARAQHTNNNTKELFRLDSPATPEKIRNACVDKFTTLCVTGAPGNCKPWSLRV

Structure (SMILES): O=C(OC[C@H]1O[C@@H](OC(=O)c2cc(O)c(O)c(O)c2)[C@H](OC(=O)c2cc(O)c(O)c(O)c2)[C@@H](OC(=O)c2cc(O)c(O)c(O)c2)[C@@H]1OC(=O)c1cc(O)c(O)c(O)c1)c1cc(O)c(O)c(O)c1 [PENTAGALLOYL GLUCOSE]
- Ki [1]: 2.12 µM
- IC50 [2]: 3.2 µM
